Here are results for five compounds from ChEMBL document CHEMBL1146373, “Free-radical-scavenging effect of carbazole derivatives on AAPH-induced hemolysis of human erythrocytes” (2007).

Holding throughout (assay type): functional
In test [1] the test system is Erythrocyte. The test can be described thus: Inhibition of AAPH-induced hemolysis in human erythrocytes assessed as hemolysis inhibition time at 10.8 uM.
In test [2] the test system is Erythrocyte. The test can be described thus: Inhibition of AAPH-induced hemolysis in human erythrocytes assessed as hemolysis time at 12.4 uM.
Test [3] relates to Erythrocyte. The test can be described thus: Inhibition of AAPH-induced hemolysis in human erythrocytes assessed as hemolysis time at 9.27 uM.
Test [4] has as its system Erythrocyte. The test can be described thus: Inhibition of AAPH-induced hemolysis in human erythrocytes assessed as hemolysis time at 10.8 uM.
The subject of test [5] is Erythrocyte. The test can be described thus: Inhibition of AAPH-induced hemolysis in human erythrocytes assessed as hemolysis inhibition time at 9.27 uM.
Test [6] concerns Erythrocyte. Put plainly: Inhibition of AAPH-induced hemolysis in human erythrocytes assessed as hemolysis time at 13.9 uM.
The subject of test [7] is Erythrocyte. Put plainly: Inhibition of AAPH-induced hemolysis in human erythrocytes assessed as hemolysis inhibition time at 12.4 uM.
In test [8] the test system is Erythrocyte. Put plainly: Inhibition of AAPH-induced hemolysis in human erythrocytes assessed as hemolysis time at 15.5 uM.
Test [9] deals with Erythrocyte. The test can be described thus: Inhibition of AAPH-induced hemolysis in human erythrocytes assessed as hemolysis inhibition time at 15.5 uM.
The test system of test [10] is Erythrocyte. Put plainly: Inhibition of AAPH-induced hemolysis in human erythrocytes assessed as hemolysis inhibition time at 13.9 uM.
In test [11] the test system is Erythrocyte. The test can be described thus: Inhibition of AAPH-induced hemolysis in human erythrocytes assessed as hemolysis inhibition time at 30.5 uM.
Test [12] concerns Erythrocyte. The test can be described thus: Inhibition of AAPH-induced hemolysis in human erythrocytes assessed as hemolysis inhibition time at 20.3 uM.
Test [13] concerns Erythrocyte. Put plainly: Inhibition of AAPH-induced hemolysis in human erythrocytes assessed as hemolysis inhibition time at 37.3 uM.
Test [14] relates to Erythrocyte. The test can be described thus: Inhibition of AAPH-induced hemolysis in human erythrocytes assessed as hemolysis time at 61 uM.
In test [15] the test system is Erythrocyte. The test can be described thus: Inhibition of AAPH-induced hemolysis in human erythrocytes assessed as hemolysis time at 37.3 uM.
Test [16] has as its system Erythrocyte. The test can be described thus: Inhibition of AAPH-induced hemolysis in human erythrocytes assessed as hemolysis inhibition time at 50.8 uM.
In test [17] the test system is Erythrocyte. The test can be described thus: Inhibition of AAPH-induced hemolysis in human erythrocytes assessed as hemolysis time at 50.8 uM.
For test [18], the system named is Erythrocyte. The test can be described thus: Inhibition of AAPH-induced hemolysis in human erythrocytes assessed as hemolysis inhibition time at 61 uM.
For test [19], the system named is Erythrocyte. Put plainly: Inhibition of AAPH-induced hemolysis in human erythrocytes assessed as hemolysis time at 20.3 uM.
In test [20] the test system is Erythrocyte. The test can be described thus: Inhibition of AAPH-induced hemolysis in human erythrocytes assessed as hemolysis time at 30.5 uM.
Test [21] concerns Erythrocyte. The test can be described thus: Inhibition of AAPH-induced hemolysis in human erythrocytes assessed as hemolysis inhibition time at 12.3 uM.
The test system of test [22] is Erythrocyte. Put plainly: Inhibition of AAPH-induced hemolysis in human erythrocytes assessed as hemolysis inhibition time at 20.6 uM.
The subject of test [23] is Erythrocyte. The test can be described thus: Inhibition of AAPH-induced hemolysis in human erythrocytes assessed as hemolysis time at 12.3 uM.
Test [24] concerns Erythrocyte. Put plainly: Inhibition of AAPH-induced hemolysis in human erythrocytes assessed as hemolysis inhibition time at 9.26 uM.
Test [25] has as its system Erythrocyte. Put plainly: Inhibition of AAPH-induced hemolysis in human erythrocytes assessed as hemolysis time at 20.6 uM.
For test [26], the system named is Erythrocyte. Put plainly: Inhibition of AAPH-induced hemolysis in human erythrocytes assessed as hemolysis inhibition time at 6.17 uM.
The subject of test [27] is Erythrocyte. Put plainly: Inhibition of AAPH-induced hemolysis in human erythrocytes assessed as hemolysis time at 15.4 uM.
In test [28] the test system is Erythrocyte. The test can be described thus: Inhibition of AAPH-induced hemolysis in human erythrocytes assessed as hemolysis time at 9.26 uM.
In test [29] the test system is Erythrocyte. Put plainly: Inhibition of AAPH-induced hemolysis in human erythrocytes assessed as hemolysis inhibition time at 15.4 uM.
The test system of test [30] is Erythrocyte. The test can be described thus: Inhibition of AAPH-induced hemolysis in human erythrocytes assessed as hemolysis time at 6.17 uM.
Test [31] relates to Erythrocyte. Put plainly: Inhibition of AAPH-induced hemolysis in human erythrocytes assessed as hemolysis inhibition time at 20.7 uM.
For test [32], the system named is Erythrocyte. The test can be described thus: Inhibition of AAPH-induced hemolysis in human erythrocytes assessed as hemolysis time at 16.5 uM.
For test [33], the system named is Erythrocyte. Put plainly: Inhibition of AAPH-induced hemolysis in human erythrocytes assessed as hemolysis time at 8.26 uM.
The subject of test [34] is Erythrocyte. Put plainly: Inhibition of AAPH-induced hemolysis in human erythrocytes assessed as hemolysis inhibition time at 16.5 uM.
For test [35], the system named is Erythrocyte. Put plainly: Inhibition of AAPH-induced hemolysis in human erythrocytes assessed as hemolysis time at 20.7 uM.
Test [36] concerns Erythrocyte. The test can be described thus: Inhibition of AAPH-induced hemolysis in human erythrocytes assessed as hemolysis inhibition time at 8.26 uM.
Test [37] relates to Erythrocyte. The test can be described thus: Inhibition of AAPH-induced hemolysis in human erythrocytes assessed as hemolysis time at 24.8 uM.
The subject of test [38] is Erythrocyte. The test can be described thus: Inhibition of AAPH-induced hemolysis in human erythrocytes assessed as hemolysis inhibition time at 24.8 uM.
Test [39] concerns Erythrocyte. The test can be described thus: Inhibition of AAPH-induced hemolysis in human erythrocytes assessed as hemolysis inhibition time at 12 uM.
Test [40] concerns Erythrocyte. The test can be described thus: Inhibition of AAPH-induced hemolysis in human erythrocytes assessed as hemolysis inhibition time at 3 uM.
Test [41] concerns Erythrocyte. Put plainly: Inhibition of AAPH-induced hemolysis in human erythrocytes assessed as hemolysis inhibition time at 9 uM.
Test [42] relates to Erythrocyte. Put plainly: Inhibition of AAPH-induced hemolysis in human erythrocytes assessed as hemolysis time at 15 uM.
Test [43] deals with Erythrocyte. The test can be described thus: Inhibition of AAPH-induced hemolysis in human erythrocytes assessed as hemolysis time at 3 uM.
The test system of test [44] is Erythrocyte. The test can be described thus: Inhibition of AAPH-induced hemolysis in human erythrocytes assessed as hemolysis inhibition time at 6 uM.
Test [45] concerns Erythrocyte. The test can be described thus: Inhibition of AAPH-induced hemolysis in human erythrocytes assessed as hemolysis inhibition time at 15 uM.
The test system of test [46] is Erythrocyte. The test can be described thus: Inhibition of AAPH-induced hemolysis in human erythrocytes assessed as hemolysis time at 12 uM.
The subject of test [47] is Erythrocyte. Put plainly: Inhibition of AAPH-induced hemolysis in human erythrocytes assessed as hemolysis time at 6 uM.
The test system of test [48] is Erythrocyte. The test can be described thus: Inhibition of AAPH-induced hemolysis in human erythrocytes assessed as hemolysis time at 9 uM.

For `c1ccc2c(c1)Nc1ccccc1O2` [PHENOXAZINE], the Activity in the test on Erythrocyte [1] worked out at 192 min; with Erythrocyte [2] it was 425 min; in the test on Erythrocyte [3] it was 345 min; in the test on Erythrocyte [4], 379 min; in the test on Erythrocyte [5], 158 min; with Erythrocyte [6], 461 min. Also, the Activity with Erythrocyte [7] is 238 min; in the test with Erythrocyte [8] it was 509 min; in the test on Erythrocyte [9], 322 min; with Erythrocyte [10] it was 274 min.

As for `c1ccc2c(c1)Nc1ccccc1S2` [PHENOTHIAZINE], the Activity in the test on Erythrocyte [11] was determined as 119 min; with Erythrocyte [12] it was 64 min; in the test on Erythrocyte [13], 157 min; with Erythrocyte [14], 451 min; in the test with Erythrocyte [15] it was 368 min; in the test on Erythrocyte [16] it was 197 min. Also, the Activity in the test with Erythrocyte [17] is 408 min; in the test on Erythrocyte [18], 240 min; in the test with Erythrocyte [19] it was 275 min; in the test with Erythrocyte [20], 330 min.

`c1ccc2c(c1)[nH]c1ccccc12` [CARBAZOLE]: the Activity was 130 min in the test with Erythrocyte [21]; 209 min with Erythrocyte [22]; 327 min in the test with Erythrocyte [23]; 101 min in the test on Erythrocyte [24]; 406 min with Erythrocyte [25]; 68 min in the test with Erythrocyte [26]. Moreover, the Activity in the test with Erythrocyte [27] was 364 min; in the test on Erythrocyte [28], 298 min; in the test with Erythrocyte [29], 167 min; in the test on Erythrocyte [30], 265 min.

For the compound `C1=Cc2ccccc2Nc2ccccc21` [IMINOSTILBENE], the Activity worked out at 153 min in the test with Erythrocyte [31]; 333 min with Erythrocyte [32]; 264 min in the test with Erythrocyte [33]; 121 min in the test with Erythrocyte [34]; 297 min in the test on Erythrocyte [2]; 365 min in the test on Erythrocyte [35]. In addition, the Activity with Erythrocyte [7] is listed as 85 min; in the test with Erythrocyte [36], 52 min; in the test on Erythrocyte [37], 381 min; in the test with Erythrocyte [38], 169 min.

Take `c1ccc(Nc2ccccc2)cc1` [DIPHENYLAMINE]: the Activity was determined as 225 min with Erythrocyte [39]; 24 min in the test on Erythrocyte [40]; 167 min with Erythrocyte [41]; 489 min with Erythrocyte [42]; 257 min with Erythrocyte [43]; 113 min in the test with Erythrocyte [44]. The Activity in the test on Erythrocyte [45] was 256 min; with Erythrocyte [46] it was 458 min; in the test on Erythrocyte [47], 346 min; with Erythrocyte [48], 400 min.
